Tests used:
Type in all cases: in vivo
[1] = test system: barnyard grass (Echinochloa crus-galli Beauv.); assay: Test Example 1: herbicidal effect on paddy field weeds before emergence; settings: Dosage 5 kg/ha
Procedure, shortened: (§1)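 Grading reflects percent control relative to untreated plots, evaluated three weeks post-application. Treatment was a soil application of compound solution, predetermined dose, made to paddy-state pots before weed seeds germinated.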

[2] = test system: bulrush (Scirpus juncoides Roxb.); assay: as above; settings: Dosage 5 kg/ha
Procedure, shortened: as §1

[3] = test system: barnyard grass (Echinochloa crus-galli Beauv.); assay: Test Example 2: herbicidal effect on paddy field weeds after emergence; settings: Dosage 5 kg/ha; one-leaved stage; 21 days after treatment
Procedure, shortened: (§2)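 Weeds in flooded paddy-soil pots were grown to the one-leaved stage, then the soil was treated with the compound solution at a set dosage.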

[4] = test system: bulrush (Scirpus juncoides Roxb.); assay: as above; settings: Dosage 5 kg/ha; one-leaved stage; 21 days after treatment
Procedure, shortened: as §2

[5] = test system: monochoria (Monochoria vaginalis Presl); assay: as above; settings: Dosage 5 kg/ha; one-leaved stage; 21 days after treatment
Procedure, shortened: as §2

[6] = test system: barnyard grass (Echinochloa crus-galli Beauv.), Ec; assay: Test Example 3: herbicidal effect on upland weeds before emergence; settings: dosage 5 kg/ha
Procedure, shortened: (§3)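 Test compound, formulated as a liquid at a fixed concentration, is sprayed before weed emergence. Two weeks later, kill rate is derived and herbicidal activity is rated.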

[7] = test system: bird's eye speedwell (Veronica persica Poir.), Vp; assay: as above; settings: dosage 5 kg/ha
Procedure, shortened: as §3

[8] = test system: cleavers (Galium aparine L.), Ga; assay: as above; settings: dosage 5 kg/ha
Procedure, shortened: as §3

[9] = test system: cocklebur (Xanthium strumarium L.), Xs; assay: as above; settings: dosage 5 kg/ha
Procedure, shortened: as §3

[10] = test system: forxtail grass (Alopecurus aequalis var. amurensis Ohwi), Am; assay: as above; settings: foxtail grass, dosage 5 kg/ha
Procedure, shortened: as §3

[11] = test system: velvetleaf (Abutilon theophtasti L.), At; assay: as above; settings: dosage 5 kg/ha
Procedure, shortened: as §3

soybean plant (So) = assay: Test Example 3: phytotoxicity to upland crop plants, treatment before emergence; settings: dosage 5 kg/ha
Procedure, shortened: (§4)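 Pre-emergence treatment: a liquid preparation containing a prescribed concentration of test compound was sprayed, and injury to soybean and wheat was assessed 14 days later. Phytotoxicity was judged against a scoring criterion, alongside weed-killing rate.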

wheat (Wh) = assay: as above; settings: dosage 5 kg/ha
Procedure, shortened: as §4

[12] = test system: barnyard grass (Echinochloa crus-galli Beauv.), Ec; assay: Test Example 4: herbicidal effect on upland weeds after emergence; settings: dosage 5 kg/ha; sprayed after emergence; judged 14 days after treatment
Procedure, shortened: (§5)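 Weeds, soybean and wheat were sown in soil-filled vats, covered with soil and grown to set leaf stages before a post-emergence spray of an agent containing the compound at a prescribed concentration. Weed-killing rate and crop phytotoxicity were assessed 14 days after treatment.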

[13] = test system: bird's eye speedwell (Veronica persica Poir.), Vp; assay: as above; settings: dosage 5 kg/ha; sprayed after emergence; judged 14 days after treatment
Procedure, shortened: as §5

[14] = test system: cleavers (Galium aparine L.), Ga; assay: as above; settings: dosage 5 kg/ha; sprayed after emergence; judged 14 days after treatment
Procedure, shortened: as §5

[15] = test system: cocklebur (Xanthium strumarium L.), Xs; assay: as above; settings: dosage 5 kg/ha; sprayed after emergence; judged 14 days after treatment
Procedure, shortened: as §5

[16] = test system: forxtail grass (Alopecurus aequalis var. amurensis Ohwi), Am; assay: as above; settings: dosage 5 kg/ha; sprayed after emergence; judged 14 days after treatment
Procedure, shortened: as §5

[17] = test system: velvetleaf (Abutilon theophtasti L.), At; assay: as above; settings: dosage 5 kg/ha; sprayed after emergence; judged 14 days after treatment
Procedure, shortened: as §5

soybean plant = assay: Test Example 4: phytotoxicity to upland crop plants, treatment after emergence; settings: dosage 5 kg/ha, sprayed after emergence, judged 14 days after treatment
Procedure, shortened: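 Upland weeds and crop plants (soybean, wheat) are grown from seed in soil until they reach given leaf stages, then treated by spraying with the compound-containing agent; effects are judged two weeks later.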

wheat = assay: as above; settings: dosage 5 kg/ha, sprayed after emergence, judged 14 days after treatment
Procedure, shortened: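 Seeds sown in soil and covered. Plants raised to specified leaf stages. Agent with test compound at a prescribed concentration sprayed. Herbicidal effect and crop damage scored after 14 days as weed-killing rate.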

SMILES	Pre-emergence treatment Barnyard grass (herbicidal effect) [1]	Pre-emergence treatment Bulrush (herbicidal effect) [2]	Post-emergence treatment Barnyard grass (herbicidal effect) [3]	Post-emergence treatment Bulrush (herbicidal effect) [4]	Post-emergence treatment Monochoria (herbicidal effect) [5]	Herbicidal effect Ec [6]	Herbicidal effect Vp [7]	Herbicidal effect Ga [8]	Herbicidal effect Xs [9]	Herbicidal effect Am [10]	Herbicidal effect At [11]	Phytotoxicity So (soybean plant (So))	Phytotoxicity Wh (wheat (Wh))	Herbicidal effect Ec [12]	Herbicidal effect Vp [13]	Herbicidal effect Ga [14]	Herbicidal effect Xs [15]	Herbicidal effect Am [16]	Herbicidal effect At [17]	Phytotoxicity So (soybean plant)	other results
CCCNC(=O)c1cc2c(nc1C(=O)Nc1c(CC)ccc(Cl)c1CC)S(=O)(=O)CC2 [Compound No. 1040, 6-(3-Chloro-2,6-diethylphenyl)-aminocarbonyl-2,3-dihydro-1,1-dioxo-thieno[2,3-b]pyridine-5-carboxylic Acid n-Propylamide]	5 (Weed-killing rate is 100%.)	5 (Weed-killing rate is 100%.)	5 (Weed-killing rate is 100%.)	5 (Weed-killing rate is 100%.)	5 (Weed-killing rate is 100%.)	5 (Weed-killing rate is 100%.)	5 (Weed-killing rate is 100%.)	5 (Weed-killing rate is 100%.)	5 (Weed-killing rate is 100%.)	5 (Weed-killing rate is 100%.)	5 (Weed-killing rate is 100%.)	4 (Crop-killing rate is 90-99%.)	5 (Crop-killing rate is 100%.)	5 (Weed-killing rate is 100%.)	5 (Weed-killing rate is 100%.)	5 (Weed-killing rate is 100%.)	5 (Weed-killing rate is 100%.)	5 (Weed-killing rate is 100%.)	5 (Weed-killing rate is 100%.)	4 (Crop-killing rate is 90-99%.)	Phytotoxicity Wh (wheat): 5 (Crop-killing rate is 100%.)
CCCNC(=O)c1nc2sccc2cc1C(=O)Nc1c(CC)ccc(Cl)c1CC [compound 799]	5 (Weed-killing rate is 100%.)	5 (Weed-killing rate is 100%.)	5 (Weed-killing rate is 100%.)	5 (Weed-killing rate is 100%.)	5 (Weed-killing rate is 100%.)	5 (Weed-killing rate is 100%.)	5 (Weed-killing rate is 100%.)	5 (Weed-killing rate is 100%.)	5 (Weed-killing rate is 100%.)	5 (Weed-killing rate is 100%.)	5 (Weed-killing rate is 100%.)	5 (Crop-killing rate is 100%.)	5 (Crop-killing rate is 100%.)	5 (Weed-killing rate is 100%.)	5 (Weed-killing rate is 100%.)	5 (Weed-killing rate is 100%.)	5 (Weed-killing rate is 100%.)	5 (Weed-killing rate is 100%.)	5 (Weed-killing rate is 100%.)	5 (Crop-killing rate is 100%.)	Phytotoxicity Wh (wheat): 5 (Crop-killing rate is 100%.)

Reference: US6444617B1, “Fused-heterocycle dicarboxylic acid diamide derivatives or salts thereof, herbicide and usage thereof” (Nihon Nohyaku Co., Ltd., priority 1998, dated 2002)
